Entries after “also recorded” stand apart in the source; their conditions may differ.
How the values were obtained:
Type in all cases: cell-based
[1] = biological target: protein kinases (human kinome) (Homo sapiens, UniProt P30291); conditions: WEE1 P30291-1; experiment wp076; degrader vs DMSO
Source text: (§1) Although development of targeted protein degraders requires a POI binder, among already-liganded proteins such as kinases, it was hypothesized that different targets would have a different propensity for current approaches to degrader-mediated destruction, which was termed ‘degradability’. […] It was rationalized that the probability of identifying the same kinase as a false positive in multiple treatments is low, therefore this analysis served to also assess the robustness of our data and subsequent interpretations. […] Overall, 62 protein kinases were degraded in more than 10 independent treatments, and remarkably, 9 of these (CDK4, AURKA, FER, WEE1, BLK. LIMK2, CDK6, GAK, LIMK1) were each degraded in at least 40 of the 154 independent treatments, emphasizing their predisposition to induced degradation (FIG. 1G; Appendix I).
(§2) Next, the frequency of degradation assessment was corrected for over-representation of molecules in the full dataset by omitting replicate profiling of compounds under different experimental conditions, to remove any bias. […] Unsurprisingly, the top degradable kinases mirror those from the previous analysis (CDK4, AURKA, FER, WEE1, BLK), confirming that in sufficiently large datasets, even with over-representation of certain molecules, frequency of degradation is a good measure of general tractability.

[2] = tested on: protein kinases (human kinome); conditions: for kinases the bifunctional compound degrades: as stated for the structure in the embodiments; for Kinase hits: kinases significantly downregulated vs DMSO (fold change cutoff −1.25, P-value<0.01), ≤8 h, 0.1-5 μM degrader, 7 cell lines; for Total no. kinase hits: number of degraded kinases per library compound
Source text: as §1, §2

[3] = biological target: protein kinases (human kinome) (Homo sapiens, UniProt P16591)
Source text: as §1, §2

Chain of protein kinases (human kinome) (Homo sapiens, UniProt P16591) (P16591 whole entry): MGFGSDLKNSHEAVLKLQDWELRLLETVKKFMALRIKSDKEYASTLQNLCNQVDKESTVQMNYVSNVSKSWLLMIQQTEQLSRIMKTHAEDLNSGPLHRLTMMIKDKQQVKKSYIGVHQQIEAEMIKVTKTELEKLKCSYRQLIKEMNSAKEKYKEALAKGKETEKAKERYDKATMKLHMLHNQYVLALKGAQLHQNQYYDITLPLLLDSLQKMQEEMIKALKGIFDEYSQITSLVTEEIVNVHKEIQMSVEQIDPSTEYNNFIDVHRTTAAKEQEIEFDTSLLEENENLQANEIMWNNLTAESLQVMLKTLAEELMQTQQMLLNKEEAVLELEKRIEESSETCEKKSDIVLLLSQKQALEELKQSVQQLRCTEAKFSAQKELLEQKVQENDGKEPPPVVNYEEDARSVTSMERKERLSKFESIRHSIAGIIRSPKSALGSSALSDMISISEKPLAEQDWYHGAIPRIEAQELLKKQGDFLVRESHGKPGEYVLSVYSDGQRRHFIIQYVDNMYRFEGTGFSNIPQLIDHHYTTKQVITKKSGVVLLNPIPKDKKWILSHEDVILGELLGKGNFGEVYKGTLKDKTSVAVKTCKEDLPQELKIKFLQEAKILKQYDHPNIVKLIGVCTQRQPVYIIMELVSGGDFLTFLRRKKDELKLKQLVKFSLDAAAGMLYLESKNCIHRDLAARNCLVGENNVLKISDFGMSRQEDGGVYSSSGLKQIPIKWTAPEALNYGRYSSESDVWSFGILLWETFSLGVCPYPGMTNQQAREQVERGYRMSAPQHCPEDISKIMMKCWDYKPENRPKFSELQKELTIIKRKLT
Chain of protein kinases (human kinome) (Homo sapiens, UniProt P30291) (P30291 whole entry): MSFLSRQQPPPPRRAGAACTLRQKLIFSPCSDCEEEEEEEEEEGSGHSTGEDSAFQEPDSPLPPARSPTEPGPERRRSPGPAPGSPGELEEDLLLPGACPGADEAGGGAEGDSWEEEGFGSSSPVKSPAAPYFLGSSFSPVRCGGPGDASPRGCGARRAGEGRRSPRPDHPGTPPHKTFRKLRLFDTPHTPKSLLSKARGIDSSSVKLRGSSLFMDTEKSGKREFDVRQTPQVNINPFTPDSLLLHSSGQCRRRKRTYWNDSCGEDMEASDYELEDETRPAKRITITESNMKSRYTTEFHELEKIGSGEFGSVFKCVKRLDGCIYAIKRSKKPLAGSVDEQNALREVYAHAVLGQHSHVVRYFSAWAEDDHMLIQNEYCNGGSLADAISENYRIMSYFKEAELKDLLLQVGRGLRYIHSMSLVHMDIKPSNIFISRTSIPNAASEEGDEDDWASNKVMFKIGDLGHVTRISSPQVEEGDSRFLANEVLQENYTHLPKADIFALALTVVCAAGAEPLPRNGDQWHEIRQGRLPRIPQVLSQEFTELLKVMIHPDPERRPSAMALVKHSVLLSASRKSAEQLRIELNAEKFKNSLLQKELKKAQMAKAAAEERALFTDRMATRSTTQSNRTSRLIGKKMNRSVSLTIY

| SMILES | Kinase hits [2] | Total no. kinase hits [2] | also measured |
| --- | --- | --- | --- |
| CNC(=O)c1ccccc1Nc1cc(Nc2ccc(N3CCN(CCOCCOCCNC(=O)CNc4cccc5c4C(=O)N(C4CCC(=O)NC4=O)C5=O)CC3)cc2OC)ncc1C(F)(F)F (centres unmarked) [MFH.S.103.1] |  |  | logFC of WEE1 [1]: −0.9694 |
| CC(C)S(=O)(=O)c1ccccc1Nc1nc(Nc2ccc(N3CCN(CCOCCNC(=O)CNc4ccc5c(c4)C(=O)N(C4CCC(=O)NC4=O)C5=O)CC3)cc2)ncc1Cl (centres unmarked) [SK-3-93] | AAK1, ABL2, AURKA, BLK, BMP2K, CDK12, CDK13, CDK17, CDK2, CDK4, CDK5, CDK6, CDK7, CDK9, FER, GAK, ITK, LCK, LIMK2, PRKAA1, PTK2B, RPS6KA1, SRC, WEE1, | 24 | kinases the bifunctional compound degrades [2]: AAK1, ABL2, AURKA, BLK, BMP2K, CDK12, CDK13, CDK17, CDK2, CDK4, CDK5, CDK6, CDK7, CDK9, FER, GAK, ITK. LCK, LIMK2. PRKAA1, PTK2B, RPS6KA1, SRC, and WEE1 |
| Cc1cc(Nc2ncc(Cl)c(Nc3ccccc3S(=O)(=O)C(C)C)n2)c(OC(C)C)cc1C1CCN(CCOCCOCCNC(=O)CNc2cccc3c2C(=O)N(C2CCC(=O)NC2=O)C3=O)CC1 (centres unmarked) [TI13.112] |  |  | logFC of FER ([3]; FER P16591-1, experiment wp012): −0.5247; logFC PTK2 ([2]; Accession Q05397-5, experiment wp012, direction down): −0.6217; logFC RPS6KA1 (Q15418-2) ([2]; RPS6KA1 protein abundance, degrader vs DMSO, experiment wp012): −0.7875 |
| CC(C)S(=O)(=O)c1ccccc1Nc1nc(Nc2ccc(N3CCN(CCOCCOCCNC(=O)CNc4cccc5c4C(=O)N(C4CCC(=O)NC4=O)C5=O)CC3)cc2)ncc1Cl (centres unmarked) [TL12-186] | AAK1, ABL1, AURKA, AURKB, BLK, BMPR1A, BUB1, BUB1B, CDK10, CDK12, CDK13, CDK17, CDK2, CDK4, CDK5, CDK6, CDK7, CDK9, COQ8A, COQ8B, CSNK1D, CSNK1E,; also recorded: EEF2K, FER, FLT1, GAK, HASPIN, IRAK4, ITK, LCK, LIMK1, LIMK2, MAP3K11, MAP3K21, MAP4K1, MAP4K3, MAPK6, MAPK7, MARK2, MARK4, NEK2, NLK, PDK2, PLK4, PRAG1, PRKAA1, PTK2B, RIOK2, RPS6KA1, SIK2, SRC, STK10, STK17A, STK35, TEC, TNK2, ULK1, ULK3, WEE1, YES1 | 60 |  |
| COc1cc(N2CCN(CCOCCOCCNC(=O)CNc3cccc4c3C(=O)N(C3CCC(=O)NC3=O)C4=O)CC2)ccc1Nc1ncc(Cl)c(Nc2ccccc2S(=O)(=O)C(C)C)n1 (centres unmarked) [TL13-12] | AURKA, FER, PRK2 | 3 |  |
| CC(C)S(=O)(=O)c1ccccc1Nc1nc(Nc2ccc(N3CCN(CCOCCOCCC(=O)NCCNc4cccc5c4CN(C4CCC(=O)NC4=O)C5=O)CC3)cc2)ncc1Cl (centres unmarked) [TL13-97, 3-(2-(2-(4-(4-((5-chloro-4-((2-(isopropylsulfonyl)phenyl)amino)pyrimidin-2-yl)amino)phenyl)piperazin-1-yl)ethoxy)ethoxy)-N-(2-((2-(2,6-dioxopiperidin-3-yl)-1-1722 oxoisoindolin-4-yl)amino)ethyl)propenamide] | AAK1, ABL2, AURKA, AURKB, BLK, BUB1B, CDK13, CDK17, CDK2, CDK4, CDK5, CDK6, CDK7, CDK9, FER, ITK, LCK, LIMK1, LIMK2, MAP3K11, MARK4, PLK4, PRKAA1, RPS6KA1, SRC, STK10, STK38, TEC, TNK2, ULK1, ULK3, WEE1 | 32 | kinases the bifunctional compound degrades [2]: AAK1, ABL2, AURKA, AURKB, BLK, BUB1B, CDK13, CDK17, CDK2, CDK4, CDK5. CDK6. CDK7. CDK9. FER, ITK, LCK, LIMK1, LIMK2, MAP3K11, MARK4, PLK4, PRKAA1, RPS6KA1, SRC. STK10, STK38, TEC, TNK2, ULK1, ULK3, and WEE1 |
| Cc1cc(Nc2ncc(Cl)c(Nc3ccccc3S(=O)(=O)C(C)C)n2)c(OC(C)C)cc1C1CCN(CCOCCOCCNC(=O)CNc2cccc3c2C(=O)N(C2CCC(=O)NC2=O)C3=O)CC1 (centres unmarked) [TL13-112] | FER, PTK2, RPS6KA1 | 3 |  |
| Cc1ccc(C(=O)Nc2ccc(CN3CCN(CCOCCOCCNC(=O)CNc4cccc5c4C(=O)N(C4CCC(=O)NC4=O)C5=O)CC3)c(C(F)(F)F)c2)cc1C#Cc1cnc2cccnn12 (centres unmarked) [TL13-150] | BLK, CDK5, FER, GAK, IRAK1, LCK, MAP4K2, MAPK14, RIPK1, SRC | 10 |  |
| CC(C)(C)c1cc(NC(=O)Nc2ccc(Oc3ccnc(C(=O)NCCOCCOCCNC(=O)CNc4cccc5c4C(=O)N(C4CCC(=O)NC4=O)C5=O)c3)cc2F)n(-c2ccc3ncccc3c2)n1 (centres unmarked) [TL13-178] |  |  | kinases the bifunctional compound degrades [2]: CDK4, LIMK1, MAP3K20, MAPK14, and MAST3 |
| Cc1cc(Nc2ncc(Cl)c(Nc3ccccc3S(=O)(=O)C(C)C)n2)c(OC(C)C)cc1C1CCN(CCOCCOCCNC(=O)CNc2cccc3c2C(=O)N(C2CCC(=O)NC2=O)C3=O)CC1 (centres unmarked) [TL13.112] |  |  | logFC of FER (P16591-1) ([3]; Experiment wp012, down): −0.5247; logFC PTK2 (Q05397-5) ([2]; Experiment wp012, direction of change down): −0.6217; logFC RPS6KA1 ([2]; RPS6KA1 (Q15418-2), experiment wp012): −0.7875 |
| NC(=O)c1c(F)cccc1Nc1nc(NC2CCN(S(=O)(=O)CCNC(=O)CCCCCCCCOc3cccc4c3C(=O)N(C3CCC(=O)NC3=O)C4=O)CC2)ncc1Br (centres unmarked) [TMX-01-160-1] | AURKA, CDK1, CDK12, CDK16, CDK17, CDK2, CDK4, CDK5, CDK6, CDK7, CDK9, MAPK10, MAPK8, MAPK9, RPS6KA1 | 15 |  |
| NC(=O)c1c(F)cccc1Nc1nc(Nc2ccc(S(=O)(=O)NCCOCCOCCOCCOCCNc3cccc4c3C(=O)N(C3CCC(=O)NC3=O)C4=O)cc2)ncc1Br (centres unmarked) [TMX-02-138] | AAKI, AURKA, AURKB, CDK1, CDK12, CDK16, CDK17, CDK2, CDK5, CDK7, CDK9, CLK1, FER, GSK3A, GSK3B, IRAK3, MAPSK11, MAPK8, MAPK9, NUAK1, PRKAA1, PRKAA2, PTK2B, RPS6KA1, RPS6KA3, STK33, STK38, TTK | 28 |  |
| Cc1cc(S(=O)(=O)NCCOCCOCCOCCOCCNc2cccc3c2C(=O)N(C2CCC(=O)NC2=O)C3=O)ccc1Nc1ncc(Br)c(Nc2cccc(F)c2C(N)=O)n1 (centres unmarked) [TMX-02-172] | AURKA, AURKB, CDK1, CDK2, CDK5, MAPK8, MAPK9, PTK2, RPS6KA1, RPS6KA3, STK33, TTK | 12 |  |
| Cc1cc(Nc2ncc(Br)c(Nc3cccc(F)c3C(N)=O)n2)ccc1S(=O)(=O)NCCOCCOCCOCCOCCNc1cccc2c1C(=O)N(C1CCC(=O)NC1=O)C2=O (centres unmarked) [TMX-02-174] | AAK1, AURKA, AURKB, CDK1, CDK12, CDK16, CDK17, CDK2, CDK5, CDK7, CDK9, CLK1, FER, GSK3A, GSK3B, IRAK3, MAP3K11, MAPK8, MAPK9, NEK1, NEK3, NEK4, NEK9, NUAK1, PRKAA1, PRKAA2, PTK2, PTK2B, RPS6KA1, RPS6KA3, RPS6KA4, STK33, STK35, STK38, TBK1, TEC, TTK, WEE1 | 37 |  |
| Nc1ncc(-c2ccc(S(=O)(=O)N(CCCNC(=O)CCOCCOCCOCCOCCOCCNc3cccc4c3C(=O)N(C3CCC(=O)NC3=O)C4=O)C3CC3)cc2F)cc1-c1ccc2c(c1)CCNC2=O (centres unmarked) [WH-9533-153, N-(3-((4-(6-amino-5-(1-oxo-1,2,3,4-tetrahydroisoquinolin-6-yl)pyridin-3-yl)-N-cyclopropyl-3-fluorophenyl)sulfonamido)propyl)-1-((2-(2,6-dioxopiperidin-3-yl)-1,3-dioxoisoindolin-4-yl)amino)-3,6,9,12,15-pentaoxaoctadecan-18-amide] | CDK14, CSNK1D, GSK3A, GSK3B, NUAK1, PIM2, STK17B, STK35, STK4 | 13 |  |
| CC(=O)c1c(C)c2cnc(Nc3ccc(N4CCN(CC(=O)NCCOCCOCCOCCNc5cccc6c5C(=O)N(C5CCC(=O)NC5=O)C6=O)CC4)cn3)nc2n(C2CCCC2)c1=O (centres unmarked) [YKL-06-102] | CDK4, CDK6, WEE1 | 3 |  |
| C=CCn1c(=O)c2cnc(Nc3ccc(N4CCN(CCCNc5cccc6c5C(=O)N(C5CCC(=O)NC5=O)C6=O)CC4)cc3)nc2n1-c1cccc(C(C)(C)O)n1 (centres unmarked) [ZNL-02-096] | COQ8A, MKNK2, PAK4, PDK1, PDK2, PDK3, PRKCI, TBCK, WEE1 | 9 |  |
| CN1c2ccccc2C(=O)Nc2cnc(Nc3ccc(N4CCN(C(=O)CCOCCNc5cccc6c5C(=O)N(C5CCC(=O)NC5=O)C6=O)CC4)cc3)nc21 (centres unmarked) [ZNL-03-127] | BLK LIMK1, LIMK2 STK17A, TNK2 | 5 | kinases the bifunctional compound degrades [2]: BLK, LIMK1, LIMK2, STK17A, and TNK2 |
| Cc1ncsc1-c1ccc([C@H](C)NC(=O)[C@@H]2C[C@@H](O)CN2C(=O)[C@@H](NC(=O)CCOCCOCCOCCN2CCC(C(=O)Nc3ncc(SCc4ncc(C(C)(C)C)o4)s3)CC2)C(C)(C)C)cc1 [ZZ-1-31B] | CDK9, CLK1 | 2 |  |
